Test results taken from patent publication EP0492930A2, “Transdermal delivery of dobutamine” (ELI LILLY AND COMPANY, priority 1990, dated 1992).

Tested on: male beagle dogs
Test: In vivo transdermal delivery: cardiac contractility change in anesthetized dogs
Protocol: To corroborate the in vitro results obtained using formulations of the present invention, the ability of the present formulation to provide transdermal delivery of dobutamine lactobionate through the skin of a living dog was also studied.
Two male beagle dogs were anesthetized with 100 mg/kg of sodium phenobarbitol and prepared for monitoring of electrocardiogram, contractile tension, heart rate and mean arterial pressure. Dobutamine lactobionate was administered by an i.v. bolus (4, 8 and 16 mcg/kg). After each animal's response returned to baseline, 1.0 ml of a formulation containing 218.9 mg of dobutamine lactobionate (100 mg equivalents of dobutamine free base), 2.0 mg of sodium bisulfite, 10.0 mg of n-decyl methyl sulfoxide in 1 ml of water was applied to a 25 cm² shaved area in the groin-abdominal region of each dog. Cardiac contractility changes in each dog were then monitored for the next 3 to 5 hours.
Column 2 discloses the time elapsed from the time the formulation was applied and Column 3 discloses the percent change in contractility (from baseline) observed at the time value shown in Column 2.

`CC(CCc1ccc(O)cc1)NCCc1ccc(O)c(O)c1` (racemic) [dobutamine lactobionate, (±)-N-[3-(4-hydroxyphenyl)-1-methylpropyl]-2-(3,4-dihydroxyphenyl)ethylamine] was tested, and the “% Change In Contractility” value (Method I (applied directly to skin), 20 min) was 30%, the “% Change In Contractility” value (Method I (applied directly to skin), 30 min) was 35% and the “% Change In Contractility” value (Method I (applied directly to skin), 60 min) was 48%. For the same molecule, the “% Change In Contractility” value (Method I (applied directly to skin), 90 min) was 21%, the “% Change In Contractility” value (Method I (applied directly to skin), 120 min) was 16% and the “% Change In Contractility” value (Method I (applied directly to skin), 180 min) was 0%. The “% Change In Contractility” value (Method I (applied directly to skin, covered with plastic film), 10 min, 1.0 ml formulation (218.9 mg lactobionate, 10.0 mg n-decyl methyl sulfoxide) on 25 cm² shaved skin, change from baseline) was 16%, the “% Change In Contractility” value (Method II (cellulose triacetate polymer patch), 10 min, 1.0 ml formulation (218.9 mg lactobionate, 10.0 mg n-decyl methyl sulfoxide), change from baseline) was 10% and the “% Change In Contractility” value (Method II (patch), 20 min) was 26%. For the same molecule, the “% Change In Contractility” value (Method II (patch), 30 min) was 24%, the “% Change In Contractility” value (Method II (patch), 60 min) was 36% and the “% Change In Contractility” value (Method II (patch), 90 min) was 41%. The “% Change In Contractility” value (Method II (patch), 120 min) was 33%, the “% Change In Contractility” value (Method II (patch), 150 min) was 25% and the “% Change In Contractility” value (Method II (patch), 180 min) was 27%. The “% Change In Contractility” value (Method II (patch), 210 min) was 22%, the “% Change In Contractility” value (Method II (patch), 240 min) was 9% and the “% Change In Contractility” value (Method II (patch), 270 min) was 9%. For the same molecule, the “% Change In Contractility” value (Method II (patch), 300 min) was 11%.
